The values that follow come from patent US4886821A, “2-pyridinecarbothioamides and pharmaceutical compositions comprising the same useful as anti ulcer agents” (American Home Products Corporation, priority 1987, dated 1989).

Test [1] concerns gastric mucosal lesions produced by ethanol. Description: Ethanol induced cytotoxicity (gastric mucosal lesions) in rats. It counts as in vivo, Male Sprague-Dawley rats. The note with it: for ED50: Rattus norvegicus, po; for % Inhibition: oral, inhibition of lesion formation vs control. The procedure: The purpose of this assay is to evaluate the effectiveness of the compounds of the present invention in preventing the formation of gastric mucosal lesions produced by ethanol. The assay is based on A. Robert, et al: Gastroenterology, 77: 433-443, 1979.
Male Sprague-Dawley rats weighing between 120-150 grams were fasted for 24 hours prior to the experiment (water ad libitum). At least two hours before dosing, the animals were placed in individual cages with wire grid bottoms and denied access to water.
Ethanol was administered orally at 1 mL per animal. The compounds of the present invention were dissolved in water or suspended in water with 0.5% carboxymethylcellulose and administered orally at a dose based on an appropriate standard giving ED50 to ED75 response of cytoprotective activity.
The rats were randomly divided into groups of equal number, ordinarily 10 to a group. The rats were weighed and the individual weights were recorded. Exactly 1 hour (4 hours in the case of Example 5) prior to the administration of ethanol, the screening group was treated with the compounds of the present invention, and the control group with the vehicle. One hour after administering the ethanol the animals were sacrificed by cervical dislocation. The stomachs were removed, cut along the greater curvature and cleansed of all debris with tap water. The stomachs were set aside and kept moist with saline until the lesions were scored.
Macroscopic lesions on the gastric mucosa were numerically graded. The final grade assigned a stomach was the sum of all the grades.
Streaks longer than 6 mm are graded in multiples of 2 mm.
The degree of cytotoxicity occuring in each group is represented as the mean±S.E.M.
The mean of each treatment group was compared to the control group and expressed as the % inhibition of lesion formation.

Test [2] deals with stress induced ulcers. Description: Stress-induced gastric ulcers in rats. To be noted: Rattus norvegicus, po; orally or parenterally, usually 15 to 45 minutes prior to stress; restraint at 4-5 °C for 3 hours, sodium taurocholate p.o.; read-out: Stress Induced Ulcer ED50. Type of test: in vivo, Male rats. The procedure: The purpose of this assay is to evaluate the effectiveness of the compounds of the present invention in preventing stress induced ulcers.
Male rats (280-380 g) were fasted for 18 hours (water available ad libitum) prior to use in experiments. Eight to twelve rats were used per group.
Drug solutions or suspensions were prepared in physiological saline solution. Suspensions were prepared with the aid of 0.5% carboxymethylcellulose in physiological saline solution. Drugs were administered orally or parenterally at predetermined intervals (usually 15 to 45 minutes) prior to stress.
This test procedure is according to the method of Senay et al., Proc. Soc. Exp. Biol. Med. 124, 1221 (1967), modified to produce a more consistent ulcer incidence. After drug administration, the rats were immobilized in metallic restrainers and placed in a cold room at 4°-5° C. for 3 hours before they were killed by cervical dislocation. Each rat was given 20 mg of sodium taurocholate p.o. immediately before placing it in the restrainer. After killing the rats, the stomachs were excised and examined. Macroscopic ulcers were subjectively assigned a grade from 1 to 3 on the basis of increasing size. The number of ulcers in each size category was determined and multiplied by the respective grade; the addition of the resultant values gave the cumulative ulcer score. The average cumulative ulcer score of each treatment group was compared to that of the control group and the percent inhibition of ulcer formation as calculated. When the responses obtained were directly proportional to the doses employed, ED50 values were determined from the dose-response curves obtained.

The subject of test [3] is ethanol induced ulcer. To be noted: Robert et al., Scand. J. Gastroenterol. 1984; cited from earlier work.
[4] abbreviates: 10 mg/kg, 1 hour prior to ethanol.

`Fc1ccc(NC(=S)c2ccccn2)c(F)c1` [Example 2, N-(2,4-Difluorophenyl)-2-pyridinecarbothioamide]: the ED50 (as a rule, the midpoint of the dose-response relation) in test [1] stood at 4.8 mg/kg; in test [2], 38 mg/kg.
In the same order, the values of `Fc1ccc(NC(=S)c2ccccn2)cc1` [Example 3, N-(4-Fluorophenyl)-2-pyridinecarbothioamide] are 2.5 mg/kg and 3.8 mg/kg.
In turn, `Fc1cccc(NC(=S)c2ccccn2)c1` [Example 4, N-(3-Fluorophenyl)-2-pyridinecarbothioamide] gave an ED50 in test [1] of 1 mg/kg.
Turning to `Fc1ccccc1NC(=S)c1ccccn1` [Example 5, N-(2-Fluorophenyl)-2-pyridinecarbothioamide], the % Inhibition (commonly how much of the control response was suppressed) in test [1] (100 mg/kg, 4 hours prior to ethanol) came out at 69%.
Regarding `CN(C(=S)c1ccccn1)c1cccc(F)c1` [Example 6, N-(3-Fluorophenyl)-N-methyl-2-pyridinecarbothioamide], in test [1] (setting [4]), the “% Inhibition” value is on record as 31%.
`CN(C(=S)c1ccccn1)c1cc(F)cc(F)c1` [Example 7, N-(3,5-Difluorophenyl)-N-methyl-2-pyridinecarbothioamide]: in test [1] (25 mg/kg, 1 hour prior to ethanol), the “% Inhibition” value turned out to be 40%.
For the compound `CCN(C(=S)c1ccccn1)c1cc(F)cc(F)c1` [Example 8, N-(3,5-Difluorophenyl)-N-ethyl-2-pyridinecarbothioamide], in test [1] (setting [4]), the “% Inhibition” value turned out to be 13%.
Turning to `Fc1cccc(F)c1NC(=S)c1ccccn1` [Example 9, N-(2,6-Difluorophenyl)-2-pyridinecarbothioamide], the ED50 in test [1] amounted to 0.38 mg/kg; in test [2], 1.8 mg/kg.
In the same order, the values of `Fc1cccc(NC(=S)c2ccccn2)c1F` [Example 10, N--(2,3-difluorophenyl)-2-pyridinecarbothioamide] are 1 mg/kg and 0.9 mg/kg.
As to `Fc1ccc(F)c(NC(=S)c2ccccn2)c1` [Example 12, N--(2,5-difluorophenyl)-2-pyridinecarbothioamide], the ED50 in test [1] is 6.2 mg/kg.
`CN/C(=N/CCSCc1nc[nH]c1C)NC#N` [cimetidine]: in test [3], the “protection in ethanol induced ulcer model” value is “do not protect in this model”.
On to `CC(C)[N+](C)(CCOC(=O)C1c2ccccc2Oc2ccccc21)C(C)C` [propantheline bromide], for which the “protection in ethanol induced ulcer model” value in test [3] is given as “do not protect in this model”.
